# Laboratory results published in patent publication US8715668B2, “Antibody selective for a tumor necrosis factor-related apoptosis-inducing ligand receptor DR5 and uses thereof” (The UAB Research Foundation, priority 2000, dated 2014).
# B1: humanized TRA-8: humanized TRA-8, cotransfection of pHB14-1 and pSR/M2-1: H2 type heavy chain (SEQ ID No. 31), LM2 light chain (SEQ ID No. 46) (antibody)
# VH: EVMLVESGGGLVQPGGSLRLSCAASGFTFSSYVMSWVRQAPGKGLEWVATISSGGSYTYYPDSVKGRFTISRDNAKNTLYLQMNSLRAEDTAVYYCARRGDSMITTDYWGQGTLVTVSS
# light: DIVMTQSPSSLSASVGDRVTITCKASQDVGTAVAWYQQKPGKAPKLLIYWASTRHTGVPSRFSGSGSGTDFTLTISSLQPEDFATYYCQQYSSYRTFGQGTKVEIKRTVAAPSVFIFPPSDEQLKSGTASVVCLLNNFYPREAKVQWKVDNALQSGNSQESVTEQDSKDSTYSLSSTLTLSKADYEKHKVYACEVTHQGLSSPVTKSFNRGEC
# Experiments:
# [1] = tested on: MMP-1, 3, and 13; assay: ELISA of MMP production by RA synovial cells; type: cell-based, human; conditions: overnight; 50 ng/ml interleukin 1b, 10 ng/ml TNF-α, 50 ng/ml TRAIL, 50 ng/ml TRA-8
# Description: Thus, it is possible that TRAIL, like TNF-α, may serve as a pro-inflammatory cytokine. […] The levels of the MMP-1 and MMP-3 in the culture supernatants are determined by the ELISA kits.
# [2] = tested on: CLL B cells; assay: Cytotoxicity to CLL B cells in vitro; type: cell-based, human; conditions: compared to normal primary B cells
# [3] = tested on: breast cancer lines; assay: Combined cytotoxicity of TRA-8 with adriamycin; type: cell-based, human
# [4] = tested on: OA synovial cells; assay: Cell viability of primary cultured OA synovial cells; type: cell-based, human; conditions: OA72M
# Excerpt: (§1) Cell viability is the percentage of the cpm of treated cells versus the cpm of untreated cells.
# (§2) The expression of DR5 on a panel of eight primary cultured synovial cells from patients with RA is compared with that on eight primary cultured synovial cells from patients with osteoarthritis (hereinafter referred to as “OA”). The eight human primary RA synovial cell cultures RA-1014, RA-1016, RA-1021, RA-512, RA-707, RA-811, RA-716, and RA-929 are kindly provided by Dr. M. Ohtsuki (Sankyo Co. Ltd., Tokyo, Japan) and cultured in DMEM supplemented with 10% FCS, penicillin, streptomycin, and glutamine. The […] OA synovial cell primary cell cultures are isolated from the synovial tissues of OA patients by a standard collagenase method and cultured under the same conditions. The passage number of all primary cells is under 10. The expression of DR5 is determined by FACs analysis as described in Example 5.
# [5] = tested on: H-9; assay: Apoptosis by ATPLite after overnight incubation; type: cell-based, human
# Description: (§3) Cell viability is determined using (1) the ATPLite® kit according to the manufacturer's instructions (Packard Instruments, Meriden, Conn.); (2) the MTT Cell proliferation/viability kit (Sigma); or (3) PI staining of dead cells and analyzed by flow cytometry. At end of culture, cells are stained with 10 μg/ml PI and PI negative cells are gated as viable cells. For analysis of condensed nuclei of hepatocytes, cells are stained with 10 ng/ml Hoechst 33352 (Molecular Probes) and analyzed by flow cytometry.
# [6] = tested on: U937; assay: Apoptosis by ATPLite after overnight incubation; type: cell-based, human
# Description: as §3
# [7] = tested on: Daudi; assay: Apoptosis by ATPLite after overnight incubation; type: cell-based, human
# Description: as §3
# [8] = tested on: Raji; assay: Apoptosis by ATPLite after overnight incubation; type: cell-based, human
# Description: as §3
# [9] = tested on: EB-3; assay: Apoptosis by ATPLite after overnight incubation; type: cell-based, human
# Description: as §3
# [10] = tested on: U87; assay: Apoptosis by ATPLite after overnight incubation; type: cell-based, human
# Description: as §3
# [11] = tested on: Molt-4; assay: Apoptosis by ATPLite after overnight incubation; type: cell-based, human
# Description: as §3
# [12] = tested on: primary B cells; assay: Apoptosis by ATPLite after overnight incubation; type: cell-based, human
# Description: as §3
# [13] = tested on: CEM-6; assay: Apoptosis by ATPLite after overnight incubation; type: cell-based, human
# Description: as §3
# [14] = tested on: U251-MG; assay: Apoptosis by ATPLite after overnight incubation; type: cell-based, human
# Description: as §3
# [15] = tested on: Hs683; assay: Apoptosis by ATPLite after overnight incubation; type: cell-based, human
# Description: as §3
# [16] = tested on: SKW6.4; assay: Apoptosis by ATPLite after overnight incubation; type: cell-based, human
# Description: as §3
# [17] = tested on: Jurkat cells; assay: Jurkat cell viability (ATPLite, MTT, PI exclusion); type: cell-based, human; conditions: overnight, TRAIL plus crosslinker
# Description: as §3
# [18] = molecular target: T1, DR4 (Homo sapiens, UniProt O00220); assay: ELISA binding to immobilized DR4-Ig fusion protein
# T1 construct: The soluble recombinant human DR4, DcR1, DcR2, TNFR1, R4, and Fas molecules used are human IgG1 fusion proteins; human IgG1 Fc
# T1 sequence (O00220 24-239 limits assumed): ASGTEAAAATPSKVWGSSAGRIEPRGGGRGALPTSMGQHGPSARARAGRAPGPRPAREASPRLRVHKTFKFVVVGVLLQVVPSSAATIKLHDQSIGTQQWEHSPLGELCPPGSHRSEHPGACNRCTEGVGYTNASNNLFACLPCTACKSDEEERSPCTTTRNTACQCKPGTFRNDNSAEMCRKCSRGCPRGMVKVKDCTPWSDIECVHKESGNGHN
# Description: ELISA plates are coated with 2 μg/ml of DR4-Ig or DR5-Ig fusion protein overnight. […] The reactions are developed by TMB substrate buffer and measured by the Benchmark Microplate Reader (BioRad). The Kd values are estimated by the one-site binding model of non-linear regression using GraphPad Prism® software (GraphPad Software, San Diego, Calif.).
# [19] = tested on: normal human hepatocytes; assay: Viability of normal human hepatocytes (ATPLite); type: cell-based
# Excerpt: For 24-hour cell viability assays, fresh normal human hepatocytes in 96-well plates were purchased from In Vitro Technology (Baltimore, Md.). […] For 6-hour viability assays, normal hepatocytes or hepatocellular cancer cells are isolated from fresh surgical specimens collected from UAB Tissue Procurement Center. All reagents for isolation of human hepatocytes including hepatocytes perfusion buffer, digest medium, washing medium, and attachment medium were purchased from Gibco. The tissue slides are digested in the Hepatocyte Digest Medium at 37° C. with shaking (50 rpm) for one hour. The isolated hepatocytes are harvested by low speed centrifugation (50 g, 3 min), and washed with the Hepatocyte Washing Medium six times. Single cell suspension of hepatocytes are cultured in the Attachment Medium containing 10% FCS in 96-well Matrigel plates (BD) for six hours. Non-attached hepatocytes are removed by twice washing with pre-warmed attachment medium.
# [20] = tested on: RA synovial cells; assay: Cell viability of primary cultured RA synovial cells; type: cell-based, human; conditions: high concentrations (>50 ng/ml)
# Excerpt: as §1, §2
# [21] = tested on: liver; assay: Induction of hepatitis in vivo by tetracycline-inducible adenoviral vectors; set-up: species or system B6 mice; conditions: Ad/TRAIL inoculated mice; 10 μg soluble human TRAIL
# Description: 8-10 week-old female B6 mice are intravenously injected with 10^9 pfu of Ad/hTRAIL with the equal number of Ad/Tet-on. Mice are fed with different concentrations of tetracycline in their drinking water immediately after inoculation of adenoviral vectors. Liver injury is determined by serum levels of AST using an AST diagnostic kit (Sigma). Expression of TRAIL is determined by Northern blot analysis.
# [22] = tested on: Jurkat cells; assay: Apoptosis-inducing activity of humanized antibody on Jurkat cells (XTT); type: cell-based, human; conditions: 12 hours; serial 2-fold dilution from 100 ng/ml
# Description: Jurkat cells cultured in RPMI1640 medium with 10% FCS (Gibco BRL) at 37° C. for 3 days in the presence of 5% CO2 are dispensed into each well of a 96-well microplate (Sumitomo Bakelite) at 50 μl per well. […] Each of the solutions of the expression products thus adjusted to 100 ng/ml is used to produce serial dilutions by repeating serial 2-fold dilution with RPMI1640 containing 10% FCS. […] After reacting at 37° C. for 12 hours, 50 μl of 25 μM PMS (phenazine methosulfate; Sigma Chemical Co.) containing 1 mg/ml XTT (2,3-bis [2-methoxy-4-nitro-5-sulfophenyl]-2H-tetrazolium-5-carboxyaniride inner salt; Sigma Chemical Co.) is added (final concentrations of 250 μg/ml for XTT and 5 μM for PMS). After incubating for 3 hours, the absorbance at 450 nm of each well is measured to calculate the cell viability by using the reduction ability of mitochondria as the index.
# The viability of the cells in each well is calculated according to the following formula: Viability(%)=100×(a−b)/(c−b) wherein “a” is the measurement of a test well, “b” is the measurement of a well with no cells, and “c” is the measurement of a well with no antibody added.
# Jurkat cells cultured in RPMI1640 medium with 10% FCS (Gibco BRL) at 37° C. for 3 days in the presence of 5% CO2 are dispensed into each well of a 96-well microplate (Sumitomo Bakelite) at 50 μl per well. […]
molecule,measurement,setting,value
IL-1b: proinflammatory cytokine,production/release of MMPs,[1],increased
"Cn1cc(C2=C(c3cn(CCCN)c4ccccc34)C(=O)NC2=O)c2ccccc21 [BisVIII, Bisindolylmaleimide VIII]",susceptibility of CLL B cells,[2],sensitive
COc1cccc2c1C(=O)c1c(O)c3c(c(O)c1C2=O)C[C@@](O)(C(=O)CO)C[C@@H]3O[C@H]1C[C@H](N)[C@H](O)[C@H](C)O1 [adriamycin],effect on TRA-8-induced apoptosis,[3]; high doses of adriamycin,additive effect
same,effect on TRA-8-induced apoptosis,"[3]; low doses of adriamycin, some TRA-8 resistant lines",synergistically enhance
TNF-α,production/release of MMPs,[1],increased
"TRAIL: Soluble recombinant human TRAIL (aa residues 95 to 281) fused to a FLAG-tag, Alexis; used with anti-FLAG crosslinker",production/release of MMPs,[1],not associated with increased release
same,susceptibility to apoptosis,[4],completely resistant
same,susceptibility to apoptosis,[5],resistant
same,susceptibility to apoptosis,[6],partially susceptible
same,susceptibility to apoptosis,[7],much less susceptible
same,susceptibility to apoptosis,[8],very susceptible
same,susceptibility to apoptosis,[9],very susceptible
same,susceptibility to apoptosis,[10],exhibited sensitivity
same,susceptibility to apoptosis,[11],partially susceptible
same,susceptibility to apoptosis,[12],did not undergo apoptosis
same,susceptibility to apoptosis,[13],highly susceptible
same,susceptibility to apoptosis,[14],resistant
same,susceptibility to apoptosis,[15],resistant
same,susceptibility to apoptosis,[16],very susceptible
same,susceptibility to apoptosis,[17],highly susceptible
same,binding activity to DR4,[18],bound to DR4
same,hepatocytes killed,"[19]; 6-hour culture period, 500 ng/ml TRAIL",Over 20%
same,hepatocytes killed,"[19]; end of 24-hour culture, 1 μg/ml, TRAIL plus crosslinker",more than 80%
same,cell death,[20]; RA929,~100%
same,cell death,[20]; RA-716,~100%
same,cell death,[20]; RA-811,~100%
same,cell death,[20]; RA-1014,~100%
same,liver injury after intravenous injection,[21],did not exhibit increased liver injury
B1,induction of apoptosis,[22],induce apoptosis
